In patent US8765447B2, “Fungal strain Beauveria sp. MTCC 5184 and a process for the preparation of enzymes therefrom” (Council of Scientific and Industrial Research, priority 2010, dated 2014):

What was measured:
[1] = tested on: purified protease of Beauveria sp MTCC 5184; assay: Effect of urea on protease activity; type: biochemical; conditions: 6M urea, 28° C., 2 h
Description: This example illustrates the effect of urea on protease activity of Beauveria sp MTCC 5184. […] In presence of 6M urea, protease was stable up to 2 h and retained more than 85% of initial activity (FIG. 13).

[2] = tested on: purified protease of Beauveria sp MTCC 5184; conditions: 3 M NaCl (FIG. 14), 28° C., 30 min
Description: Samples were removed at regular intervals and residual activity was measured at 50° C., pH 9.0 and expressed as percentage of activity without NaCl taken as 100%.

[3] = tested on: protease of Beauveria sp MTCC 5184; assay: Stability of protease at 37° C. in water miscible solvents; type: biochemical; conditions: water miscible solvents (FIG. 10)
Description: FIG. 10: Stability of protease at 37° C. in presence of water miscible solvents.

[4] = tested on: purified protease of Beauveria sp MTCC 5184; assay: Stability of purified protease in organic solvents at 50° C.; type: biochemical; conditions: 25% (v/v) solvent, pH 7
Text: Following organic solvents were used: acetone, 1-butanol, benzene, chloroform, dimethylsulphoxide, ethanol, hexane, isopropanol and methanol. […] Samples were removed at different time intervals and residual activity was estimated.

NC(N)=O [urea]
initial activity retained [1]: more than 85%

[Cl-].[Na+] [NaCl]
stability [2]: 100%

CO [Methanol, methanol]
initial activity retained [3]: > 80%
Residual Activity (%) ([4]; 0 h): 100.00%
Residual Activity (%) ([4]; 1 h): 93.49%
Residual Activity (%) ([4]; 2 h): 46.09%
